What all share (assay type): physicochemical
Series [1] in a line: Gelation test in solvents at room temperature. Particulars: Table 3. Also on record: key: I, insoluble; P, precipitating; S, soluble at ~20 mg/mL; G, gel at room temperature; number is minimum gelation concentration. How it is done: (§1) Gelation tests were performed by adding incremental amounts of compounds to a solvent or solvent system at room temperature and observing the results (i.e., gel formation, solubility of compounds, insolubility of compounds, or formation of a precipitate). […] The term “precipation” means that the compound dissolves upon heating and sonicating, however, it crashes out of solution when the heat is removed.
(§2) After the compounds were synthesized, they were screened for gelation properties. […] For the compounds with new chiral centers, they formed gels in aqueous environment preferentially.

Series [2] is described as follows: Gelation test in solvents at room temperature. Also noted: key to Gelation test result: I, insoluble; P, precipitating; S, soluble at ~20 mg/mL; G, gel at room temperature; number is minimum gelation concentration. Particulars: for Gelation result / concentration of slightly unstable or partial gel (UG) / preliminary MGC (stable gel): Table 3; for Gelation test result: room temperature. The procedure:
as §1, §2

A short description of series [3]: Gelation test in solvents at room temperature. Also noted: key: S, soluble (starting test at 20 mg/mL); I, insoluble; P, precipitate; G, stable gel, the numbers after G are preliminary MGCs in mg/mL; UG, slightly unstable gels or partial gels, concentrations are 20 mg/mL unless otherwise noted. Particulars: Table 3. The procedure:
as §1, §2

Non-standard residues stand in square brackets, D forms with d. Residues, ends and D or L forms follow the SMILES beside them. *: point of attachment. Nphe = O=C(O)CNCc1ccccc1; Bz = O=C(c1ccccc1)*

For `COc1ccc(CN(CC(=O)NCC(=O)O)C(=O)c2ccc(Br)cc2)cc1` [Compound 42], the Gelation result in series [1] (Hexane) is given as “I”; in series [2] (EtOH) it was “S (S, soluble (starting test at 20 mg/mL))”; in series [3] (DMSO:H2O 1:1) it was “P”; in series [3] (DMSO:H2O 1:2), “P”; in series [3] (EtOH:H2O (1:2)), “P”; in series [3] (Water), “P”.

Take `COc1ccc(CN(CC(=O)Nc2ccc(Oc3ccc(NC(=O)CN(Cc4ccc(OC)cc4)C(=O)c4ccc(Br)cc4)cc3)cc2)C(=O)c2ccc(Br)cc2)cc1` [Compound 36]: the Gelation result in series [1] (Hexane) is listed as “I”; in series [2] (EtOH), “S (S, soluble (starting test at 20 mg/mL))”; in series [3] (DMSO:H2O 1:1) it was “UG”; in series [3] (DMSO:H2O 1:2) it was “P”; in series [3] (EtOH:H2O (1:2)) it was “P”; in series [3] (Water), “P”. Besides, in series [2] (DMSO:H2O 1:1), the “concentration of slightly unstable or partial gel (UG)” value (“concentration” below) worked out at 20000 µg/mL.

Consider `CCOC(=O)CNC(=O)CN(Cc1ccccc1)C(=O)c1ccccc1` [Compound 22, Ethyl 2-(2-(N-benzylbenzamido)acetamido)acetate] (Bz-[Nphe]-Gly-OEt), for which the Gelation test result in series [2] (DMSO:H2O (1:1)) is recorded as “S (S, soluble at ~20 mg/mL)”; in series [2] (DMSO:H2O (1:2)), “P”; in series [2] (EtOH), “P”; in series [2] (EtOH:H2O (1:1)), “P”; in series [2] (EtOH:H2O (1:2)) it was “P”; in series [2] (H2O) it was “S (S, soluble at ~20 mg/mL)”. The Gelation test result in series [2] (Hexane) is reported as “S (S, soluble at ~20 mg/mL)”.

For the compound `COc1ccc(C(C(=O)NC2CCCCC2)N(Cc2ccccc2)C(C)=O)cc1` (racemic) [Compound 37], the Gelation result is listed as “I” in series [1] (Hexane); “S (S, soluble (starting test at 20 mg/mL))” in series [2] (EtOH); “P” in series [3] (DMSO:H2O 1:2); “G” in series [3] (EtOH:H2O (1:2)); “UG” in series [3] (Water). Moreover, the “preliminary MGC (stable gel)” value in series [2] (EtOH:H2O (1:2)) turned out to be 15.0 mg/mL. The “concentration” value in series [2] (Water) came out at 17000 µg/mL.

`COc1ccc(CN(CC(=O)NCS(=O)(=O)c2ccc(C)cc2)C(=O)c2ccc(Br)cc2)cc1` [Compound 35]: the Gelation result in series [1] (Hexane) is recorded as “I”; in series [1] (Water), “I”; in series [3] (DMSO:H2O 1:1), “G”; in series [3] (DMSO:H2O 1:2), “G”; in series [3] (EtOH:H2O (1:2)) it was “G”; in series [3] (EtOH) it was “P”. Further, the “preliminary MGC (stable gel)” value is recorded as 20.0 mg/mL in series [2] (DMSO:H2O 1:1), 20.0 mg/mL in series [2] (DMSO:H2O 1:2) and 10.0 mg/mL in series [2] (EtOH:H2O (1:2)).

As to `O=C(CN(C(=O)c1ccccc1)c1ccccc1)NC1CCCCC1` [Compound 39], the Gelation result was “S (S, soluble (starting test at 20 mg/mL))” in series [2] (EtOH); “P” in series [3] (DMSO:H2O 1:1); “P” in series [3] (DMSO:H2O 1:2); “P” in series [3] (EtOH:H2O (1:2)); “P” in series [3] (Hexane); “P” in series [3] (Water).

For the compound `CCOC(=O)CNC(=O)CN(Cc1ccc(OC)cc1)C(=O)CCC(=O)NC1C(OC)OC2COC(c3ccccc3)OC2C1O` (stereo not shown) [Compound 34], the Gelation result in series [1] (Hexane) is listed as “I”; in series [3] (DMSO:H2O 1:1) it was “G”; in series [3] (DMSO:H2O 1:2), “G”; in series [3] (EtOH:H2O (1:2)), “G”; in series [3] (EtOH), “G”; in series [3] (Water), “G”. For the same compound, the “preliminary MGC (stable gel)” value in series [2] (DMSO:H2O 1:1) came to 20.0 mg/mL; in series [2] (DMSO:H2O 1:2), 10.0 mg/mL; in series [2] (EtOH:H2O (1:2)) it was 20.0 mg/mL; in series [2] (EtOH), 10.0 mg/mL; in series [2] (Water), 10.0 mg/mL. Further, in series [2] (screening of Table 3 compounds), the “gelation properties (in words)” value is on record as “able to gelate in water as well as almost all the tested solvents”.

`COc1ccc(C(C(=O)NC2CCCCC2)N(C(C)=O)[C@H](C)c2ccccc2)cc1` (single isomer, unassigned) [Compound 38b]: the Gelation result is recorded as “I” in series [1] (DMSO:H2O 1:2), “P” in series [3] (EtOH:H2O (1:2)) and “G” in series [3] (Water). Moreover, in series [2] (Water), the “preliminary MGC (stable gel)” value is given as 21.0 mg/mL.

Regarding `CCOC(=O)CNC(=O)CN(CCNC(=O)OC(C)(C)C)C(=O)Cc1ccc2ccccc2c1` [Compound 33], the Gelation result was “I” in series [1] (Hexane); “S (S, soluble (starting test at 20 mg/mL))” in series [2] (EtOH); “P” in series [3] (DMSO:H2O 1:1); “P” in series [3] (DMSO:H2O 1:2); “P” in series [3] (EtOH:H2O (1:2)); “P” in series [3] (Water).

Turning to `CCOC(=O)CNC(=O)CN(C(=O)c1ccc(Br)cc1)C1C(OCC)OC2COC(c3ccccc3)OC2C1O` (stereo not shown) [Compound 32], the Gelation result in series [1] (Hexane) is “I”; in series [2] (EtOH), “S (S, soluble (starting test at 20 mg/mL))”; in series [3] (DMSO:H2O 1:1), “G”; in series [3] (DMSO:H2O 1:2), “UG”; in series [3] (EtOH:H2O (1:2)), “G”; in series [3] (Water) it was “P”. Further, the “preliminary MGC (stable gel)” value in series [2] (DMSO:H2O 1:1) and in series [2] (EtOH:H2O (1:2)) was 20.0 mg/mL in each case. In series [2] (DMSO:H2O 1:2), the “concentration” value worked out at 20000 µg/mL.

With `O=C(O)CNC(=O)CN(Cc1ccccc1)C(=O)c1ccc(C(=O)N(CC(=O)NCC(=O)O)Cc2ccccc2)cc1` [Compound 43], the Gelation result is given as “I” in series [1] (Hexane); “S (S, soluble (starting test at 20 mg/mL))” in series [2] (EtOH); “UG” in series [3] (DMSO:H2O 1:1); “UG” in series [3] (DMSO:H2O 1:2); “P” in series [3] (Water). For the same compound, the “concentration” value in series [2] (DMSO:H2O 1:1) and in series [2] (DMSO:H2O 1:2) was 20000 µg/mL throughout.

On to `CC1(C)OCC(CN(CC(=O)NC2CCCCC2)C(=O)c2ccc(Br)cc2)O1` (stereo not shown) [Compound 27], for which the “preliminary MGC (stable gel)” value in series [2] (DMSO:H2O 1:1) and in series [2] (DMSO:H2O 1:2) was 20.0 mg/mL throughout. For the same compound, the Gelation result is “S (S, soluble (starting test at 20 mg/mL))” in series [2] (Hexane); “S (S, soluble (starting test at 20 mg/mL))” in series [2] (Water); “G” in series [3] (DMSO:H2O 1:1); “G” in series [3] (DMSO:H2O 1:2); “P” in series [3] (EtOH:H2O (1:2)); “P” in series [3] (EtOH).

With `O=C(CN(Cc1ccccc1)C(=O)c1ccc(C(=O)N(CC(=O)NC2CCCCC2)Cc2ccccc2)cc1)NC1CCCCC1` [Compound 29], the Gelation result in series [1] (Hexane) was “I”; in series [3] (DMSO:H2O 1:1), “P”; in series [3] (DMSO:H2O 1:2), “G”; in series [3] (EtOH:H2O (1:2)), “P”; in series [3] (EtOH), “UG”; in series [3] (Water), “UG”. Also, the “preliminary MGC (stable gel)” value in series [2] (DMSO:H2O 1:2) is on record as 20.0 mg/mL. In series [2] (Water), the “concentration” value came out at 20000 µg/mL.

As for `COc1ccc(C(C(=O)NC2CCCCC2)N(C(C)=O)[C@H](C)c2ccccc2)cc1` (single isomer, unassigned) [Compound 38a], the Gelation result in series [1] (EtOH:H2O (1:2)) is “I”; in series [2] (EtOH), “S (S, soluble (starting test at 20 mg/mL))”; in series [3] (DMSO:H2O 1:2), “UG”; in series [3] (Hexane) it was “P”; in series [3] (Water) it was “UG”. In addition, the “concentration” value was 18000 µg/mL in series [2] (DMSO:H2O 1:2) and 17000 µg/mL in series [2] (Water).

For the compound `COC1OC2COC(c3ccccc3)OC2C(O)C1N(CC(=O)NC1CCCCC1)C(C)=O` (stereo not shown) [Compound 31], the Gelation result in series [1] (Hexane) is given as “I”; in series [2] (EtOH:H2O (1:2)), “S (S, soluble (starting test at 20 mg/mL))”; in series [3] (DMSO:H2O 1:1), “G”; in series [3] (DMSO:H2O 1:2), “G”; in series [3] (EtOH), “G”; in series [3] (Water), “P”. Moreover, the “preliminary MGC (stable gel)” value in series [2] (DMSO:H2O 1:1), in series [2] (DMSO:H2O 1:2) and in series [2] (EtOH) was 10.0 mg/mL in each case.

For `CCOC(=O)CNC(=O)CN(Cc1ccccc1)C(=O)c1ccc(C(=O)N(CC(=O)NCC(=O)OCC)Cc2ccccc2)cc1` [Compound 30], the Gelation result in series [1] (Hexane) is listed as “I”; in series [1] (Water), “I”; in series [2] (EtOH), “S (S, soluble (starting test at 20 mg/mL))”; in series [3] (DMSO:H2O 1:1), “P”; in series [3] (DMSO:H2O 1:2), “P”; in series [3] (EtOH:H2O (1:2)), “P”.

Take `O=C(CN(CC(O)CO)C(=O)c1ccc(Br)cc1)NC1CCCCC1` (stereo not shown) [Compound 41]: the Gelation result in series [1] (Hexane) is recorded as “I”; in series [2] (DMSO:H2O 1:1), “S (S, soluble (starting test at 20 mg/mL))”; in series [2] (DMSO:H2O 1:2), “S (S, soluble (starting test at 20 mg/mL))”; in series [2] (EtOH:H2O (1:2)), “S (S, soluble (starting test at 20 mg/mL))”; in series [2] (EtOH), “S (S, soluble (starting test at 20 mg/mL))”; in series [2] (Water), “S (S, soluble (starting test at 20 mg/mL))”.

The values are drawn from US20140296354A1, “SYNTHESIS OF PEPTOID-BASED SMALL MOLECULAR GELATORS FROM MULTIPLE COMPONENT REACTIONS” (OLD DOMINION UNIVERSITY RESEARCH FOUNDATION, priority 2013, published 2014).
